From patent publication US10604554B2, “Double-acylated GLP-1 derivatives” (Novo Nordisk A/S, priority 2012, dated 2020)
Read-outs that look alike come from different tables or passages of the source.

Experiments:
human GLP-1 receptor [1] = biological target: T1, human GLP-1 receptor (Homo sapiens, UniProt P43220); experiment: In vitro potency (CRE luciferase; whole cells); assay type: cell-based; design: EC50/pM (ratio 1% HSA/0% HSA): unit not given here; details: for EC50: BHK cells; for EC50/pM (ratio 1% HSA/0% HSA): ratio of EC50 at 1% HSA to EC50 at 0% HSA
T1 construct: expressed in transfected cells; host or cells: BHK cells, clone FCW467-12A/KZ10-1 (parent line BHKTS13), further transfected with CRE luciferase
In short: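 Stably transfected BHK cells carrying human GLP-1R and a CRE–firefly luciferase reporter, 5×10^3 cells/well in assay medium, run with 0% or 1% HSA in assay buffer.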

human GLP-1 receptor [2] = biological target: T1, human GLP-1 receptor; experiment: GLP-1 receptor binding (SPA, displacement of 125I-GLP-1); details: for IC50: 0.001% HSA (low albumin), read-out: Receptor binding affinity IC50 (low HSA); for IC50 (high HSA): Receptor binding affinity IC50 (high HSA), 2.0% HSA (high albumin), heading: Receptor binding affinity IC50
In short: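 Membranes from a stably transfected hamster cell line, 5-10 ug protein/sample, with WGA SPA beads and [125I]-GLP-1(7-36)NH2 at 0.06 nM final. Incubated 120 min at 30 °C with shaking, then counted.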

in vivo [3] = details: male, Göttingen, minipig, iv
in vivo [4] = details: male, Sprague Dawley, rat, iv
Experimental: The purpose of this Example is to investigate half-life in vivo in rat.
In vivo pharmacokinetic studies in rats were performed with the GLP-1 derivatives of a number of the Example compounds, as described in the following.
Male Sprague Dawley rats of same age with a body weight of approximately 400 g were obtained from Taconic (Denmark) and assigned to the treatments by simple randomisation on body weight, approximately 4 rats per group.
The GLP-1 derivatives (approximately 6 nmol/ml) were dissolved in 50 mM sodium phosphate, 145 mM sodium chloride, 0.05% tween 80, pH 7.4. Intravenous injections (1.0 ml/kg) of the compounds were given with a syringe in the tail vein of conscious rats. Blood was sampled from vena sublingualis for 5 days post dosing. Blood samples (200 μl) were collected in EDTA buffer (8 mM) and then centrifuged at 4° C. and 10000 G for 5 minutes. Plasma samples were kept at −20° C. until analyzed for plasma concentration of the respective GLP-1 compound.
The donor beads were coated with streptavidin, while acceptor beads were conjugated with a monoclonal antibody recognising a mid-/C-terminal epitope of the peptide. Another monoclonal antibody, specific for the N-terminus, was biotinylated. The three reactants were combined with the analyte and formed a two-sited immuno-complex. Illumination of the complex released singlet oxygen atoms from the donor beads, which were channeled into the acceptor beads and triggered chemiluminescence which was measured in an Envision plate reader. The amount of light was proportional to the concentration of the compound.
Plasma concentration-time profiles were analyzed using Phoenix WinNonLin ver. 6.2, Pharsight Inc., Mountain View, Calif., USA), and the half-life (T1/2) calculated using individual plasma concentration-time profiles from each animal.

[5] = 0% HSA, read-out: In vitro potency (CRE luciferase) EC50 (0% HSA)
[6] = In vitro potency (CRE luciferase) EC50 (1% HSA), 1% HSA

T1 sequence (P43220 24-463): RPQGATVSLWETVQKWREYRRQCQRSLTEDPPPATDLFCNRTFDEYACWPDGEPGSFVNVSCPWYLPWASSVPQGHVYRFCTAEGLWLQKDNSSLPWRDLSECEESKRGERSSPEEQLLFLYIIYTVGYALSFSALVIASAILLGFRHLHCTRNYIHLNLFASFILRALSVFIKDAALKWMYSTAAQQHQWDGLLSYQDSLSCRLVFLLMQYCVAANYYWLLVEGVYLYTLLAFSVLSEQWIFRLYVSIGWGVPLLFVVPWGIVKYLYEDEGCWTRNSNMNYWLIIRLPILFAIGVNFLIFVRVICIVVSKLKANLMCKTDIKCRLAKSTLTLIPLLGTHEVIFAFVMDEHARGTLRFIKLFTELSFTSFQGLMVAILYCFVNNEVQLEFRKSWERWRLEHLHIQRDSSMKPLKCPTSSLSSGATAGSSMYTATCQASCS

EC50 (human GLP-1 receptor [1]; [5]) | EC50 (human GLP-1 receptor [1]; [6]) | EC50/pM (ratio 1% HSA/0% HSA) (human GLP-1 receptor [1]) | IC50 (human GLP-1 receptor [2]) | IC50 (high HSA) (human GLP-1 receptor [2]) | half-life (in vivo [3]) | half-life (in vivo [4]) | SMILES
0.0055 nM | 1.15 nM | 194 | 0.33 nM | 222 nM | 109 h | 28 h | CC[C@H](C)[C@H](NC(=O)[C@H](Cc1ccccc1)NC(=O)[C@H](CCC(=O)O)NC(=O)[C@H](CCCCNC(=O)[C@@H](N)CCCCNC(=O)[C@@H](N)CCCCNC(=O)CC[C@H](NC(=O)CC[C@H](NC(=O)CCCCCCCCCCCCCCC(=O)O)C(=O)O)C(=O)O)NC(=O)[C@H](C)NC(=O)[C@H](C)NC(=O)[C@H](CCC(N)=O)NC(=O)CNC(=O)[C@H](CCC(=O)O)NC(=O)[C@H](CC(C)C)NC(=O)[C@H](Cc1ccc(O)cc1)NC(=O)[C@H](CO)NC(=O)[C@H](CO)NC(=O)[C@@H](NC(=O)[C@H](CC(=O)O)NC(=O)[C@H](CO)NC(=O)[C@@H](NC(=O)[C@H](Cc1ccccc1)NC(=O)[C@@H](NC(=O)CNC(=O)[C@H](CCC(=O)O)NC(=O)C(C)(C)NC(=O)[C@@H](N)Cc1c[nH]cn1)[C@@H](C)O)[C@@H](C)O)C(C)C)C(=O)N[C@@H](C)C(=O)N[C@@H](Cc1c[nH]c2ccccc12)C(=O)N[C@@H](CC(C)C)C(=O)N[C@H](C(=O)N[C@@H](CCCNC(=N)N)C(=O)NCC(=O)N[C@@H](CCCNC(=N)N)C(=O)N[C@@H](CCCCNC(=O)[C@@H](N)CCCCNC(=O)[C@@H](N)CCCCNC(=O)CC[C@H](NC(=O)CC[C@H](NC(=O)CCCCCCCCCCCCCCC(=O)O)C(=O)O)C(=O)O)C(=O)O)C(C)C [Example 12, N^ε26-[(2S)-2-amino-6-[[(2S)-2-amino-6-[[(4S)-4-carboxy-4-[[(4S)-4-carboxy-4-(15-carboxypentadecanoylamino)butanoyl]amino]butanoyl]amino]hexanoyl]amino]hexanoyl], N^ε37-[(2S)-2-amino-6-[[(2S)-2-amino-6-[[(4S)-4-carboxy-4-[[(4S)-4-carboxy-4-(15-carboxypentadecanoylamino)butanoyl]amino]butanoyl]amino]hexanoyl]amino]hexanoyl]-[Aib^8,Arg^34, Lys^37]-GLP-1-(7-37)-peptide]
0.0022 nM | 1.38 nM | 659 | 0.76 nM | 545 nM | 93 h | 31 h | CC[C@H](C)[C@H](NC(=O)[C@H](Cc1ccccc1)NC(=O)[C@H](CCC(=O)O)NC(=O)[C@H](CCCCNC(=O)[C@@H](N)CCCCNC(=O)CC[C@H](NC(=O)CC[C@H](NC(=O)CC[C@H](NC(=O)CCCCCCCCCCCCCCC(=O)O)C(=O)O)C(=O)O)C(=O)O)NC(=O)[C@H](C)NC(=O)[C@H](C)NC(=O)[C@H](CCC(N)=O)NC(=O)CNC(=O)[C@H](CCC(=O)O)NC(=O)[C@H](CC(C)C)NC(=O)[C@H](Cc1ccc(O)cc1)NC(=O)[C@H](CO)NC(=O)[C@H](CO)NC(=O)[C@@H](NC(=O)[C@H](CC(=O)O)NC(=O)[C@H](CO)NC(=O)[C@@H](NC(=O)[C@H](Cc1ccccc1)NC(=O)[C@@H](NC(=O)CNC(=O)[C@H](CCC(=O)O)NC(=O)C(C)(C)NC(=O)[C@@H](N)Cc1c[nH]cn1)[C@@H](C)O)[C@@H](C)O)C(C)C)C(=O)N[C@@H](C)C(=O)N[C@@H](Cc1c[nH]c2ccccc12)C(=O)N[C@@H](CC(C)C)C(=O)N[C@H](C(=O)N[C@@H](CCCNC(=N)N)C(=O)NCC(=O)N[C@@H](CCCNC(=N)N)C(=O)N[C@@H](CCCCNC(=O)[C@@H](N)CCCCNC(=O)CC[C@H](NC(=O)CC[C@H](NC(=O)CC[C@H](NC(=O)CCCCCCCCCCCCCCC(=O)O)C(=O)O)C(=O)O)C(=O)O)C(=O)O)C(C)C [Example 13, N^ε26-[(2S)-2-amino-6-[[(4S)-4-carboxy-4-[[(4S)-4-carboxy-4-[[(4S)-4-carboxy-4-(15-carboxypentadecanoylamino)butanoyl]amino]butanoyl]amino]butanoyl]amino]hexanoyl], N^ε37-[(2S)-2-amino-6-[[(4S)-4-carboxy-4-[[(4S)-4-carboxy-4-[[(4S)-4-carboxy-4-(15-carboxypentadecanoylamino)butanoyl]amino]butanoyl]amino]butanoyl]amino]hexanoyl]-[Aib^8,Arg^34,Lys^37]-GLP-1-(7-37)-peptide]
0.025 nM | 0.051 nM | 2.5 | 0.77 nM | 147 nM | 56 h | 13 h | CC[C@H](C)[C@H](NC(=O)[C@H](Cc1ccccc1)NC(=O)[C@H](CCC(=O)O)NC(=O)[C@H](CCCCNC(=O)[C@@H](N)CCCCNC(=O)COCCOCCNC(=O)COCCOCCNC(=O)CC[C@H](NC(=O)CCCCCCCCCCCCC(=O)O)C(=O)O)NC(=O)[C@H](C)NC(=O)[C@H](C)NC(=O)[C@H](CCC(N)=O)NC(=O)CNC(=O)[C@H](CCC(=O)O)NC(=O)[C@H](CC(C)C)NC(=O)[C@H](Cc1ccc(O)cc1)NC(=O)[C@H](CO)NC(=O)[C@H](CO)NC(=O)[C@@H](NC(=O)[C@H](CC(=O)O)NC(=O)[C@H](CO)NC(=O)[C@@H](NC(=O)[C@H](Cc1ccccc1)NC(=O)[C@@H](NC(=O)CNC(=O)[C@H](CCC(=O)O)NC(=O)C(C)(C)NC(=O)[C@@H](N)Cc1c[nH]cn1)[C@@H](C)O)[C@@H](C)O)C(C)C)C(=O)N[C@@H](C)C(=O)N[C@@H](Cc1c[nH]c2ccccc12)C(=O)N[C@@H](CC(C)C)C(=O)N[C@H](C(=O)N[C@@H](CCCNC(=N)N)C(=O)NCC(=O)N[C@@H](CCCNC(=N)N)C(=O)N[C@@H](CCCCNC(=O)[C@@H](N)CCCCNC(=O)COCCOCCNC(=O)COCCOCCNC(=O)CC[C@H](NC(=O)CCCCCCCCCCCCC(=O)O)C(=O)O)C(=O)O)C(C)C [Example 19, N^ε26-[(2S)-2-amino-6-[[2-[2-[2-[[2-[2-[2-[[(4S)-4-carboxy-4-(13-carboxytridecanoylamino)butanoyl]amino]ethoxy]ethoxy]acetyl]amino]ethoxy]ethoxy]acetyl]amino]hexanoyl], N^ε37-[(2S)-2-amino-6-[[2-[2-[2-[[2-[2-[2-[[(4S)-4-carboxy-4-(13-carboxytridecanoylamino)butanoyl]amino]ethoxy]ethoxy]acetyl]amino]ethoxy]ethoxy]acetyl]amino]hexanoyl]-[Aib^8,Arg^34,Lys^37]-GLP-1-(7-37)-peptide]
